US12391648B2, “Pyridyloxy thioester derivative and preparation method therefor, herbicidal composition, and application” (Qingdao Kingagroot Chemical Compound Co., Ltd., priority 2018, dated 2025)

Columns and labels:
Type in all cases: in vivo
Monochoria vaginalis [1] = assay: Weed control effect evaluation in rice field; details: paddy water application at 0.5 leaf stage, 14 days after treatment, weeds resistant to pyrazosulfuron-ethyl and penoxsulam
Excerpt: (§1) The activity level standard of harmful plants destruction (i. e. growth inhibition rate) is as follows: • Level 5: the growth inhibition rate is greater than 85%; • Level 4: the growth inhibition rate is equal to or greater than 60% and less than 85%; • Level 3: the growth inhibition rate is equal to or greater than 40% and less than 60%; • Level 2: the growth inhibition rate is equal to or greater than 20% and less than 40%; • Level 1: the growth inhibition rate is equal to or greater than 5% and less than 20%; • Level 0: the growth inhibition rate is less than 5%;
(§2) Transplanted rice safety evaluation and weed control effect evaluation in rice field:
Rice field soil was loaded into a 1/1,000,000 ha pot. The seeds of Monochoria vaginalis were sowed and gently covered with soil, then left to stand still in greenhouse in the state of 0.5-1 cm of water storage. It was kept at 3-4 cm of water storage thereafter. The weeds were treated by dripping the WP or SC water diluents prepared according to the common preparation method of the compounds of the present invention with pipette homogeneously to achieve specified effective amount when Monochoria vaginalis reached 0. 5 leaf stage.
(§3) The fertility condition of Monochoria vaginalis 14 days and rice 21 days after the treatment of the compound of the invention with the naked eye.
Note: The seeds of Monochoria vaginalis were collected from Heilongjing Province of China.

Galium spurium = assay: Post-emergence test experiment (Table 3, 1000 g/ha); details: post-emergence spray, after 3 weeks, fresh weight inhibition
Procedure, shortened: (§4)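 Activity graded levels 0-5 by fresh-weight inhibition (level 5 above 85%, level 0 below 5%), assessed 3 weeks after treatment. Plants grown in greenhouse pots were sprayed post-emergence at 2-3 leaves using acetone/tween-80 solutions with methyl oleate synergist (1.5 L/ha).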

Monochoria vaginalis [2] = assay: as above; details: post-emergence spray, after 3 weeks, fresh weight inhibition
Procedure, shortened: as §4

Abutilon theophrasti = assay: as above; details: post-emergence spray, after 3 weeks, fresh weight inhibition
Procedure, shortened: as §4

Digitaria sanguinalis = assay: as above; details: post-emergence spray, after 3 weeks, fresh weight inhibition
Procedure, shortened: as §4

Setaria viridis = assay: as above; details: post-emergence spray, after 3 weeks, fresh weight inhibition
Procedure, shortened: as §4

Leptochloa chinensis = assay: as above; details: post-emergence spray, after 3 weeks, fresh weight inhibition
Procedure, shortened: as §4

rice (japonica rice) = assay: Transplanted rice safety evaluation; details: 1000 g/ha, transplanted 3-leaf stage japonica rice, treated 5 days after transplantation, 21 days after treatment
Excerpt: as §1, §2
In addition, the rice field soil that loaded into the 1/1,000,000 ha pot was leveled to keep water storage at 3-4 cm depth. The 3-leaf stage rice (japonica rice) was transplanted at 3 cm of transplanting depth the next day. The compound of the present invention was treated by the same way after 5 days of transplantation.
as §3

[3] = system: ALS resistant Cyperus iria; assay: Post-emergence test experiment (Table 4), weed control; details: after 3 weeks
Excerpt: as §1
(§5) The above described growth inhibition rate is fresh weight inhibition rate.
(§6) Post-emergence test experiment: Monocotyledonous and dicotyledonous weed seeds and main crop seeds (i. e. wheat, corn, rice, soybean, cotton, oilseed, millet and sorghum.) were put into a plastic pot loaded with soil. Then covered with 0.5-2 cm soil, the seeds were allowed to grow in good greenhouse environment. The test plants were treated at 2-3 leaf stage 2 weeks after sowing. The test compounds of the invention were dissolved with acetone respectively, then added with tween-80, and using 1.5 liters per hectare of an emulsible concentrate of methyl oleate as a synergist, and diluted by certain amount of water to certain concentration. The solution was sprayed to the plants with a sprayer. Then the plants were cultured for 3 weeks in the greenhouse, and the experiment result of weed controlling effect after 3 weeks was listed in tables 3-4.
(§7) […] Echinochloa crusgalli and Cyperus iria were collected from Ningxia Hui Autonomous Region of China, which had evolved resistance to ALS inhibiting herbicides. • Control compound A:

[4] = system: ALS resistant Echinochloa crusgalli; assay: as above; details: after 3 weeks
Excerpt: as §1, §5, §6, §7

Japonica rice = assay: Post-emergence test experiment (Table 4), crop safety; details: after 3 weeks
Excerpt: as §1, §5, §6, §7

Indica rice = assay: as above; details: after 3 weeks
Excerpt: as §1, §5, §6, §7

[5] = 600 g/ha active ingredient, plus water 450 kg/ha

## CSC(=O)C(C)Oc1ncc(Cl)c(N)c1Cl (centres unmarked) [Compound 3]
Monochoria vaginalis [1]; 1000 g/ha
  Monochoria Vaginalis, activity standard level 0-5: 5 (Level 5: the growth inhibition rate is greater than 85%)
Galium spurium
  Activity level (growth inhibition rate) Galium spurium: 5 (Level 5: the growth inhibition rate is greater than 85%)
Monochoria vaginalis [2]
  Activity level (growth inhibition rate) Monochoria Vaginalis: 5 (Level 5: the growth inhibition rate is greater than 85%)
Abutilon theophrasti
  Activity level (growth inhibition rate) Abutilon theophrasti: 5 (Level 5: the growth inhibition rate is greater than 85%)
Digitaria sanguinalis
  Activity level (growth inhibition rate) Digitaria sanguinalis: 5 (Level 5: the growth inhibition rate is greater than 85%)
Setaria viridis
  Activity level (growth inhibition rate) Setaria viridis: 5 (Level 5: the growth inhibition rate is greater than 85%)
Leptochloa chinensis
  Activity level (growth inhibition rate) Leptochloa chinensis: 5 (Level 5: the growth inhibition rate is greater than 85%)
Rice (japonica rice)
  Rice, activity standard level 0-5 (safety): 0 (Level 0: the growth inhibition rate is less than 5%)
[3]; [5]
  ALS resistant Cyperus iria, activity level (growth inhibition rate): 5 (Level 5: the growth inhibition rate is greater than 85%)
[4]; [5]
  ALS resistant Echinochloa crusgalli, activity level (growth inhibition rate): 5 (Level 5: the growth inhibition rate is greater than 85%)
Japonica rice; [5]
  Japonica rice, activity level (growth inhibition rate): 0 (Level 0: the growth inhibition rate is less than 5%)
Indica rice; [5]
  Indica rice, activity level (growth inhibition rate): 0 (Level 0: the growth inhibition rate is less than 5%)

## CCSC(=O)C(C)Oc1nc(F)c(Cl)c(N)c1Cl (centres unmarked) [Compound 66]
Monochoria vaginalis [1]; 1000 g/ha
  Monochoria Vaginalis, activity standard level 0-5: 5 (Level 5: the growth inhibition rate is greater than 85%)
Galium spurium
  Activity level (growth inhibition rate) Galium spurium: 5 (Level 5: the growth inhibition rate is greater than 85%)
Monochoria vaginalis [2]
  Activity level (growth inhibition rate) Monochoria Vaginalis: 5 (Level 5: the growth inhibition rate is greater than 85%)
Abutilon theophrasti
  Activity level (growth inhibition rate) Abutilon theophrasti: 5 (Level 5: the growth inhibition rate is greater than 85%)
Digitaria sanguinalis
  Activity level (growth inhibition rate) Digitaria sanguinalis: 5 (Level 5: the growth inhibition rate is greater than 85%)
Setaria viridis
  Activity level (growth inhibition rate) Setaria viridis: 5 (Level 5: the growth inhibition rate is greater than 85%)
Leptochloa chinensis
  Activity level (growth inhibition rate) Leptochloa chinensis: 5 (Level 5: the growth inhibition rate is greater than 85%)
Rice (japonica rice)
  Rice, activity standard level 0-5 (safety): 0 (Level 0: the growth inhibition rate is less than 5%)
[3]; [5]
  ALS resistant Cyperus iria, activity level (growth inhibition rate): 5 (Level 5: the growth inhibition rate is greater than 85%)
[4]; [5]
  ALS resistant Echinochloa crusgalli, activity level (growth inhibition rate): 5 (Level 5: the growth inhibition rate is greater than 85%)
Japonica rice; [5]
  Japonica rice, activity level (growth inhibition rate): 0 (Level 0: the growth inhibition rate is less than 5%)
Indica rice; [5]
  Indica rice, activity level (growth inhibition rate): 0 (Level 0: the growth inhibition rate is less than 5%)

## CC(Oc1nc(F)c(Cl)c(N)c1Cl)C(=O)SCCCC(F)(F)F (centres unmarked) [Compound 79]
Monochoria vaginalis [1]; 1000 g/ha
  Monochoria Vaginalis, activity standard level 0-5: 5 (Level 5: the growth inhibition rate is greater than 85%)
Galium spurium
  Activity level (growth inhibition rate) Galium spurium: 5 (Level 5: the growth inhibition rate is greater than 85%)
Monochoria vaginalis [2]
  Activity level (growth inhibition rate) Monochoria Vaginalis: 5 (Level 5: the growth inhibition rate is greater than 85%)
Abutilon theophrasti
  Activity level (growth inhibition rate) Abutilon theophrasti: 5 (Level 5: the growth inhibition rate is greater than 85%)
Digitaria sanguinalis
  Activity level (growth inhibition rate) Digitaria sanguinalis: 5 (Level 5: the growth inhibition rate is greater than 85%)
Setaria viridis
  Activity level (growth inhibition rate) Setaria viridis: 5 (Level 5: the growth inhibition rate is greater than 85%)
Leptochloa chinensis
  Activity level (growth inhibition rate) Leptochloa chinensis: 5 (Level 5: the growth inhibition rate is greater than 85%)
Rice (japonica rice)
  Rice, activity standard level 0-5 (safety): 0 (Level 0: the growth inhibition rate is less than 5%)
[3]; [5]
  ALS resistant Cyperus iria, activity level (growth inhibition rate): 5 (Level 5: the growth inhibition rate is greater than 85%)
[4]; [5]
  ALS resistant Echinochloa crusgalli, activity level (growth inhibition rate): 5 (Level 5: the growth inhibition rate is greater than 85%)
Japonica rice; [5]
  Japonica rice, activity level (growth inhibition rate): 0 (Level 0: the growth inhibition rate is less than 5%)
Indica rice; [5]
  Indica rice, activity level (growth inhibition rate): 0 (Level 0: the growth inhibition rate is less than 5%)

## COc1cc(OC)nc(Oc2cccc(Oc3nc(OC)cc(OC)n3)c2C(=O)O)n1 [Bispyribac-sodium, reference compound]
[3]; 100 g/ha
  ALS resistant Cyperus iria, activity level (growth inhibition rate): 1 (Level 1: the growth inhibition rate is equal to or greater than 5% and less than 20%)
[4]; 100 g/ha
  ALS resistant Echinochloa crusgalli, activity level (growth inhibition rate): 1 (Level 1: the growth inhibition rate is equal to or greater than 5% and less than 20%)
Japonica rice; 100 g/ha
  Japonica rice, activity level (growth inhibition rate): 4 (Level 4: the growth inhibition rate is equal to or greater than 60% and less than 85%)
Indica rice; 100 g/ha
  Indica rice, activity level (growth inhibition rate): 2 (Level 2: the growth inhibition rate is equal to or greater than 20% and less than 40%)

## CC(Oc1nc(F)c(Cl)c(N)c1Cl)C(=O)SC1CCCC1 (centres unmarked) [Compound 125]
Galium spurium
  Activity level (growth inhibition rate) Galium spurium: 5 (Level 5: the growth inhibition rate is greater than 85%)
Monochoria vaginalis [2]
  Activity level (growth inhibition rate) Monochoria Vaginalis: 5 (Level 5: the growth inhibition rate is greater than 85%)
Abutilon theophrasti
  Activity level (growth inhibition rate) Abutilon theophrasti: 5 (Level 5: the growth inhibition rate is greater than 85%)
Digitaria sanguinalis
  Activity level (growth inhibition rate) Digitaria sanguinalis: 5 (Level 5: the growth inhibition rate is greater than 85%)
Setaria viridis
  Activity level (growth inhibition rate) Setaria viridis: 5 (Level 5: the growth inhibition rate is greater than 85%)
Leptochloa chinensis
  Activity level (growth inhibition rate) Leptochloa chinensis: 5 (Level 5: the growth inhibition rate is greater than 85%)

## CC(Oc1nc(F)c(Cl)c(N)c1Cl)C(=O)SCCF (centres unmarked) [Compound 158]
Galium spurium
  Activity level (growth inhibition rate) Galium spurium: 5 (Level 5: the growth inhibition rate is greater than 85%)
Monochoria vaginalis [2]
  Activity level (growth inhibition rate) Monochoria Vaginalis: 5 (Level 5: the growth inhibition rate is greater than 85%)
Abutilon theophrasti
  Activity level (growth inhibition rate) Abutilon theophrasti: 5 (Level 5: the growth inhibition rate is greater than 85%)
Digitaria sanguinalis
  Activity level (growth inhibition rate) Digitaria sanguinalis: 5 (Level 5: the growth inhibition rate is greater than 85%)
Setaria viridis
  Activity level (growth inhibition rate) Setaria viridis: 5 (Level 5: the growth inhibition rate is greater than 85%)
Leptochloa chinensis
  Activity level (growth inhibition rate) Leptochloa chinensis: 5 (Level 5: the growth inhibition rate is greater than 85%)

## COC(=O)C(C)SC(=O)C(C)Oc1nc(F)c(Cl)c(N)c1Cl (centres unmarked) [Compound 95]
Galium spurium
  Activity level (growth inhibition rate) Galium spurium: 5 (Level 5: the growth inhibition rate is greater than 85%)
Monochoria vaginalis [2]
  Activity level (growth inhibition rate) Monochoria Vaginalis: 5 (Level 5: the growth inhibition rate is greater than 85%)
Abutilon theophrasti
  Activity level (growth inhibition rate) Abutilon theophrasti: 5 (Level 5: the growth inhibition rate is greater than 85%)
Digitaria sanguinalis
  Activity level (growth inhibition rate) Digitaria sanguinalis: 5 (Level 5: the growth inhibition rate is greater than 85%)
Setaria viridis
  Activity level (growth inhibition rate) Setaria viridis: 5 (Level 5: the growth inhibition rate is greater than 85%)
Leptochloa chinensis
  Activity level (growth inhibition rate) Leptochloa chinensis: 5 (Level 5: the growth inhibition rate is greater than 85%)

## COc1cnc(OC)n2nc(NS(=O)(=O)c3c(OCC(F)F)cccc3C(F)(F)F)nc12 [Penoxsulam, reference compound]
Monochoria vaginalis [1]; 50 g/ha
  Monochoria Vaginalis, activity standard level 0-5: 1 (Level 1: the growth inhibition rate is equal to or greater than 5% and less than 20%)
